# Experiments:
# [1] = tested on: Helicobacter pylori No. 4; assay: MIC, agar plating dilution, clinical segregation strain; type: cell-based; details: Strain 7: Helicobacter pylori No. 4
# Method: (§1) Minimum Inhibitory Concentration (MIC) was measured in accordance with the standard method of Japanese Chemotherapy Academy (Chemotherapy, 29: 76-79, 1981). Sensitivity was measured with an agar plating dilution using Brain-Heart Infusion agar (Difco Co.) which was added 0.1% of cyclodextrin. […] of the solutions of the compounds which were obtained in examples of the present invention was prepared by dissolving in dimethylsulfoxide. […] Each of 1 ml of those prepared solutions was dispensed in share, after sterilization, 9 ml of sensitivity measuring medium which is kept at 50° C. was added to each, and they were sufficiently mixed. The mixture was used as a plate for measuring sensitivity. Brain Heart Infusion agar medium (Difco Co.), which was added 0.1% of cyclodextrin, was used as bacteria growing medium, and was cultured under microair at 37° C. for three days, and the number of bacteria thereof was adjusted to about 106/ml. This was used as a bacterial solution for inoculation. The medium was painted in each square about 2 cm with nichromic line loop. The medium was cultured under microair for three days at 37° C. […] The each result is shown at Table 4.
# [2] = tested on: Helicobacter pylori No. 1; assay: as above; type: cell-based; details: Strain 4: Helicobacter pylori No. 1
# Method: as §1
# [3] = tested on: Helicobacter pylori No. 3; assay: as above; type: cell-based; details: Strain 6: Helicobacter pylori No. 3
# Method: as §1
# [4] = tested on: Helicobacter pylori No. 2; assay: as above; type: cell-based; details: Strain 5: Helicobacter pylori No. 2
# Method: as §1
# [5] = tested on: Helicobacter pylori No. 19; assay: as above; type: cell-based; details: Strain 8: Helicobacter pylori No. 19
# Method: as §1
# [6] = tested on: Helicobacter pylori No. 28; assay: as above; type: cell-based; details: Strain 10: Helicobacter pylori No. 28
# Method: as §1
# [7] = tested on: Helicobacter pylori No. 20; assay: as above; type: cell-based; details: Strain 9: Helicobacter pylori No. 20
# Method: as §1
# [8] = tested on: Staphylococcus aureus ATCC 6538; assay: MIC, standard method of Japanese Chemotherapy Academy; type: cell-based; details: Strain 12: Staphylococcus aureus ATCC 6538
# Method: (§2) 1. Minimum Inhibitory Concentration (MIC) was measured in accordance with the standard method of Japanese Chemotherapy Academy (Chemotherapy, 29: 76-79, 1981).
# (§3) And MIC of the compounds of Example 3, 36, 8, 14, 17, 21, 41 and 45 were measured.
# [9] = tested on: Bacillus subtilis ATCC 6633; assay: as above; type: cell-based; details: for MIC against bacillus subcillus ATCC 6633: standard method of Japanese Chemotherapy Academy
# Method: as §2, §3
# [10] = tested on: Staphylococcus aureus 209PJC; assay: as above; type: cell-based; details: Strain 11: Staphylococcus aureus 209PJC
# Method: as §2, §3
# [11] = tested on: Staphylococcus aureus No. 2 (MRSA); assay: as above; type: cell-based; details: Strain 14: Staphylococcus aureus No. 2 (MRSA)
# Method: as §2, §3
# [12] = tested on: Escherichia coli NIH JC-2; assay: as above; type: cell-based; details: Objected Strain 3: Escherichia coli NIH JC-2
# Method: as §2
# [13] = tested on: Helicobacter pylori ATCC 43629; assay: MIC, agar plating dilution (standard method of Japanese Chemotherapy Academy); type: cell-based; details: Objected Strain 2: Helicobacter pylori ATCC 43629
# In short: (§4)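 Agar dilution MIC followed the Japanese Chemotherapy Academy standard method, on Brain Heart Infusion agar with 0.1% cyclodextrin and compounds dissolved in DMSO. Plates were incubated microaerobically at 37 °C for three days.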
# [14] = tested on: Helicobacter pylori ATCC 43504; assay: as above; type: cell-based; details: Objected Strain 1: Helicobacter pylori ATCC 43504
# In short: as §4
# [15] = tested on: Helicobacter pylori No. 4; assay: MIC and MBC, liquid medium dilution; type: cell-based; details: Objected Strain 7: Helicobacter pylori No. 4
# Method: (§5) 2. Minimum Inhibitory Concentration (MIC) and Minimum Bacteria sterilizeory Concentration (MBC) against helicobacter pylon were measured in accordance with the liquid medium dilution. […] And […] of helicobacter pylon bacterial solution, which was cultured at 37° C. for three days and then diluted and prepared with the above mentioned liquid medium, was added to the mixtures to adjust the volume to 105 CFU/ml. […] After they were cultured by the same method as above mentioned, minimum concentration of the compounds which were not recognized the growth with the naked eyes were measured as the values of MBC.
# [16] = tested on: Helicobacter pylori No. 1; assay: MIC and MBC, liquid medium dilution; type: cell-based; details: Objected Strain 4: Helicobacter pylori No. 1
# Method: as §5
# [17] = tested on: Helicobacter pylori No. 3; assay: MIC and MBC, liquid medium dilution; type: cell-based; details: Objected Strain 6: Helicobacter pylori No. 3
# Method: as §5
# [18] = tested on: Helicobacter pylori No. 2; assay: MIC and MBC, liquid medium dilution; type: cell-based; details: Objected Strain 5: Helicobacter pylori No. 2
# Method: as §5
# [19] = tested on: Helicobacter pylori ATCC 43629; assay: MIC and MBC, liquid medium dilution; type: cell-based; details: Objected Strain 2: Helicobacter pylori ATCC 43629
# Method: as §5
# [20] = tested on: Helicobacter pylori ATCC 43504; assay: MIC and MBC, liquid medium dilution; type: cell-based; details: Objected Strain 1: Helicobacter pylori ATCC 43504
# Method: as §5
# [21] = tested on: ethanol hydrochloride ulceration; details: against an ethanol hydrochloride ulceration; cited from earlier work
# [22] = tested on: helicobacter pylori; assay: MIC of benexart hydrochloride, for reference; type: cell-based; details: strain and medium not given
# Method: For reference, the value of MIC of benexart hydrochloride was >100 µg/ml.
Compound,MIC [1] [µg/mL],MIC [2] [µg/mL],MIC [3] [µg/mL],MIC [4] [µg/mL],MIC against bacillus subcillus ATCC 6633 [9] [µg/mL],MIC [12] [µg/mL],MIC [13] [µg/mL],MIC [14] [µg/mL],MIC [15] [µg/mL],MIC [16] [µg/mL],MIC [17] [µg/mL],MIC [18] [µg/mL],MIC [19] [µg/mL],MIC [20] [µg/mL],MBC [15] [µg/mL],MBC [16] [µg/mL],MBC [17] [µg/mL],MBC [18] [µg/mL],MBC [19] [µg/mL],MBC [20] [µg/mL],also measured
N=C(N)NCC1CCC(C(=O)Oc2ccc(CCC(=O)NO)cc2)CC1 (stereo not drawn) [Formula (XIV)],–,–,–,–,–,–,–,–,–,–,–,–,–,–,–,–,–,–,–,–,ulceration restraining ratio [21]: 88.7%
Cl.NC(N)=NCC1CCC(C(=O)Oc2ccccc2C(=O)OCc2ccccc2)CC1 (stereo not drawn) [benexart hydrochloride],–,–,–,–,–,–,–,–,–,–,–,–,–,–,–,–,–,–,–,–,MIC [22]: > 100 µg/mL
"Cl.N=C(N)NC[C@H]1CC[C@H](C(=O)Oc2ccc(-c3ccc(C(=O)OCc4ccc(F)cc4)cc3)cc2)CC1 [Example 16, trans-4-guanidinomethyl cyclohexane carboxylic acid [4-[4-(4-fluorobenzyloxycarbonyl)phenyl]phenylester].hydrochloride]",0.39,0.20,0.20,0.78,> 25,>25,0.78,0.78,0.10,0.20,0.05,0.78,0.39,0.20,0.39,0.78,0.10,3.13,1.56,0.39,–

# Second part, led by results:
MIC [1] [µg/mL],MIC [2] [µg/mL],MIC [3] [µg/mL],MIC [4] [µg/mL],MIC against bacillus subcillus ATCC 6633 [9] [µg/mL],MIC [12] [µg/mL],MIC [13] [µg/mL],MIC [14] [µg/mL],MIC [15] [µg/mL],MIC [16] [µg/mL],MIC [17] [µg/mL],MIC [18] [µg/mL],MIC [19] [µg/mL],MIC [20] [µg/mL],Compound,MBC [15] [µg/mL],MBC [16] [µg/mL],MBC [17] [µg/mL],MBC [18] [µg/mL],MBC [19] [µg/mL],MBC [20] [µg/mL],also measured
0.20,0.10,0.10,0.39,> 25,>25,0.39,0.39,0.39,0.20,0.10,0.39,0.39,0.20,"Cc1ccc(COC(=O)c2ccc(-c3ccc(OC(=O)[C@H]4CC[C@H](CNC(=N)N)CC4)cc3)cc2)cc1.Cl [Example 14, trans-4-guanidinomethyl cyclohexane carboxylic acid [4-[4-(4-methylbenzyloxy carbonyl)phenyl]phenylester].hydrochloride]",0.39,0.20,0.10,1.56,1.56,0.20,MIC [5]: 0.20 µg/mL; MIC [6]: 0.39 µg/mL; MIC [7]: 0.39 µg/mL; MIC [8]: >25 µg/mL; MIC ([9]; Strain 13: Bacillus subtilis ATCC 6633): >25 µg/mL; MIC [10]: >25 µg/mL; MIC [11]: >25 µg/mL
0.20,0.10,0.10,0.39,> 25,>25,0.39,0.78,0.39,0.20,0.05,0.39,0.39,0.20,"Cl.N=C(N)NC[C@H]1CC[C@H](C(=O)Oc2ccc(-c3ccc(C(=O)OCc4ccc(Cl)cc4)cc3)cc2)CC1 [Example 15, trans4-guanidinomethyl cyclohexane carboxylic acid [4-[4-(4-chlorobenzyloxy carbonyl)phenyl]phenylester].hydrochloride]",0.39,0.78,0.10,1.56,1.56,0.39,–

# — patent US6831190B1, “Guanidinomethyl cyclohexane carboxylic acid ester derivatives” (Teikoku Chemical Industries Co., Ltd., priority 1994, dated 2004)
